Measurements as given in PMC3914206.

Columns and labels:
Assay in all cases: KiNativ chemical proteomics profiling in HeLa and PC3 cell lysates
Type in all cases: binding
[1] = target: T1, selected panels of kinases in HeLa and PC3 cell lysates (Homo sapiens, UniProt Q8IU85); details: 10 uM; proteome HEL; peptide LFAVkCIPK; labeling site Lys1
T1 construct: endogenous in cells; host or cells: HeLa and PC3 cell lysates

[2] = target: T2, selected panels of kinases in HeLa and PC3 cell lysates (Homo sapiens, UniProt Q00537); details: 10 uM; PCTAIRE2; peptide DLkPQNLLINEK; proteome HEL; labeling site Lys2
T2 construct: endogenous in cells; host or cells: HeLa and PC3 cell lysates

[3] = target: T3, selected panels of kinases in HeLa and PC3 cell lysates (Homo sapiens, UniProt Q13535); details: 10 uM, peptide FYIMMCkPK, labeling site ATP
T3 construct: endogenous in cells; host or cells: HeLa and PC3 cell lysates
T3 sequence (Q13535 whole entry): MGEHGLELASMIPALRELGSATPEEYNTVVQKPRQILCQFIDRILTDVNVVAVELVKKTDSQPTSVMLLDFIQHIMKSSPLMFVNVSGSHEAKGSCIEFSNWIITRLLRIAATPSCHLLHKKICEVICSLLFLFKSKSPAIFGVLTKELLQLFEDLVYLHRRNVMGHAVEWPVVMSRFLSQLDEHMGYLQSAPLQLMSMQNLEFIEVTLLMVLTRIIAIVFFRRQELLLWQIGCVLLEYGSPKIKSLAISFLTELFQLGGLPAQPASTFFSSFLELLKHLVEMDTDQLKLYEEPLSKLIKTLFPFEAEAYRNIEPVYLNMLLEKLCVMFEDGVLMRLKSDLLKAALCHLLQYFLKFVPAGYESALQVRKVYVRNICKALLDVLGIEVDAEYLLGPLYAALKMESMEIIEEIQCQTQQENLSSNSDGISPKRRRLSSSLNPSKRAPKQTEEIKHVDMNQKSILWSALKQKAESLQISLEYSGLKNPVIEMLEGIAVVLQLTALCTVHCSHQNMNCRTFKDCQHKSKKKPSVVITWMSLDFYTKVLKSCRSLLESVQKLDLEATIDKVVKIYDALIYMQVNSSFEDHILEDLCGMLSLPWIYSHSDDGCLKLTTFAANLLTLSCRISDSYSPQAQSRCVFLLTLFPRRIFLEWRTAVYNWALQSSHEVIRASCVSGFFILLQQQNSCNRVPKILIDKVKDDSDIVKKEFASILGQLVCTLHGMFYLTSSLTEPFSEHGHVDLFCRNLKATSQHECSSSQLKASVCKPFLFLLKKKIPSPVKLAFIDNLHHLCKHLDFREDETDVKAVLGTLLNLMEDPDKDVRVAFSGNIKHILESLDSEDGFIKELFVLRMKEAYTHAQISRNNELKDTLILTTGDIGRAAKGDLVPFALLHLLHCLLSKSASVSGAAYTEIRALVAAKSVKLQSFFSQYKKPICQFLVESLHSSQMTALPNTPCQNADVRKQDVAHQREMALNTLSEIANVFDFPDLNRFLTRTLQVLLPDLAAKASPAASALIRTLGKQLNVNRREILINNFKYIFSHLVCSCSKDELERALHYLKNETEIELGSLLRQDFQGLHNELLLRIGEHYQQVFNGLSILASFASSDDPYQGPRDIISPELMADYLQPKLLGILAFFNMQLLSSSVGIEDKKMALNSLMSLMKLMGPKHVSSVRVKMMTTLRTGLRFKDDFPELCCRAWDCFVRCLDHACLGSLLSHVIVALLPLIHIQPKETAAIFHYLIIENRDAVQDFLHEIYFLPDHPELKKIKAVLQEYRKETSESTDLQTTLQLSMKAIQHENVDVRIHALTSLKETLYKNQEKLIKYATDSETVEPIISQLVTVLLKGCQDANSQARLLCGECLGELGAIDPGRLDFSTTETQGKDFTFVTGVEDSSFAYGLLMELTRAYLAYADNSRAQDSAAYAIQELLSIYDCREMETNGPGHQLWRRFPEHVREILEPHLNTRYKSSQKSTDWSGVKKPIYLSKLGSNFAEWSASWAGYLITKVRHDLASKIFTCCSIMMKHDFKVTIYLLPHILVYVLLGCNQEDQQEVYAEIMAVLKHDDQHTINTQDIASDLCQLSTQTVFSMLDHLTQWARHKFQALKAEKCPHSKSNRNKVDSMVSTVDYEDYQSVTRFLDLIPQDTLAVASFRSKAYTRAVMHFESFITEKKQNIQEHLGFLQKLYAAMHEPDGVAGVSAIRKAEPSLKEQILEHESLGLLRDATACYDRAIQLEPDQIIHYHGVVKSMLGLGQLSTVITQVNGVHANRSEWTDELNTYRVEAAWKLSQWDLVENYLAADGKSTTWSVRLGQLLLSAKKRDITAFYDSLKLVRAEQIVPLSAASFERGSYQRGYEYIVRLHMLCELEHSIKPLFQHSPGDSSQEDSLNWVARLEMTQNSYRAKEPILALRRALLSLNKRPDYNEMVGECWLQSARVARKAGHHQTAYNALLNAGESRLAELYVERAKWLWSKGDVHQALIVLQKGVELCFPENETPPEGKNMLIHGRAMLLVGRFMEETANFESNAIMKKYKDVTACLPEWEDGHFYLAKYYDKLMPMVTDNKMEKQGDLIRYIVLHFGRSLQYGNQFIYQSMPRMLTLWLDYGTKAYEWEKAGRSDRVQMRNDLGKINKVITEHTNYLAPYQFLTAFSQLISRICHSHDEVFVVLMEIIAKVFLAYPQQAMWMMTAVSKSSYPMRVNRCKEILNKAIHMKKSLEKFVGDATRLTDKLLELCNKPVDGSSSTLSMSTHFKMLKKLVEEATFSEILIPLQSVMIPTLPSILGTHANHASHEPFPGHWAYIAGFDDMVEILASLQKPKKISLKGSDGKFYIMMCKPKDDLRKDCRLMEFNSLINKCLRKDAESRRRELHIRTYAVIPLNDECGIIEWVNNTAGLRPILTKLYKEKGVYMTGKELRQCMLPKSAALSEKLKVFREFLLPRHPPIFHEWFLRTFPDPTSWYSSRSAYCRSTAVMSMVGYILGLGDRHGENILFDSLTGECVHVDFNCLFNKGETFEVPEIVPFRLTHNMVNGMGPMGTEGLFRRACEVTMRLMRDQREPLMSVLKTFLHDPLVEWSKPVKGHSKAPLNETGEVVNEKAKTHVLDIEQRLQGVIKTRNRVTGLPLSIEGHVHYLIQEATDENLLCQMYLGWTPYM

[4] = target: T4, selected panels of kinases in HeLa and PC3 cell lysates (Homo sapiens, UniProt Q96J92); details: 10 uM; Wnk4; peptide DLk[…]; proteome PC3; labeling site Lys2
T4 construct: endogenous in cells; host or cells: HeLa and PC3 cell lysates

[5] = target: T5, selected panels of kinases in HeLa and PC3 cell lysates (Homo sapiens, UniProt Q15131); details: 10 uM; proteome PC3; peptide DLkVSNLLMTDK; labeling site Lys2
T5 construct: endogenous in cells; host or cells: HeLa and PC3 cell lysates

[6] = target: T6, selected panels of kinases in HeLa and PC3 cell lysates (Homo sapiens, UniProt O15111); details: 10 uM; proteome HEL; peptide DLk[…]; labeling site Lys2
T6 construct: endogenous in cells; host or cells: HeLa and PC3 cell lysates

[7] = target: T7, selected panels of kinases in HeLa and PC3 cell lysates (Homo sapiens, UniProt P23443); details: 10 uM, peptide DLk[…], labeling site Lys2; for % Inhibition p70S6K: proteome PC3; for % Inhibiton, p70S6K: proteome HEL
T7 construct: endogenous in cells; host or cells: HeLa and PC3 cell lysates
T7 sequence (P23443 whole entry): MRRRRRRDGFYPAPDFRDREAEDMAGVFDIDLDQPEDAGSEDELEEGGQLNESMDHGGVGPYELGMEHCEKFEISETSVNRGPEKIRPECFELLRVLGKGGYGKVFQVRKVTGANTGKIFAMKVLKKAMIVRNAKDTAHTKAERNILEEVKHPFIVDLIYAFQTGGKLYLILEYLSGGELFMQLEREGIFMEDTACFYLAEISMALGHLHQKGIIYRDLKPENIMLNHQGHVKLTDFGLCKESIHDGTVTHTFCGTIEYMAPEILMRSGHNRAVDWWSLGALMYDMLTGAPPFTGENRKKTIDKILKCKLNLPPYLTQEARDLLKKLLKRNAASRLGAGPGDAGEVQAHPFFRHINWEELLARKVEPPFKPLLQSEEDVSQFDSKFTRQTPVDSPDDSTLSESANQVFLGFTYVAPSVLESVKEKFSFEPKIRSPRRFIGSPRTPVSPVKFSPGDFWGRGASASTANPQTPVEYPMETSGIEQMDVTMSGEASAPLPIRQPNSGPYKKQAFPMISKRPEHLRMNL

[8] = target: T8, selected panels of kinases in HeLa and PC3 cell lysates (Homo sapiens, UniProt P15735); details: 10 uM; PHKg2; peptide ATGHEFAVkIMEVTAER; proteome PC3; labeling site Lys1
T8 construct: endogenous in cells; host or cells: HeLa and PC3 cell lysates

[9] = target: T9, selected panels of kinases in HeLa and PC3 cell lysates (Homo sapiens, UniProt P29323); details: 10 uM; proteome PC3; peptide […]kIPIR; labeling site Activation Loop
T9 construct: endogenous in cells; host or cells: HeLa and PC3 cell lysates

[10] = target: T10, selected panels of kinases in HeLa and PC3 cell lysates (Homo sapiens, UniProt Q13523); details: 10 uM; PRP4; peptide […]k[…]; proteome PC3; labeling site Lys2
T10 construct: endogenous in cells; host or cells: HeLa and PC3 cell lysates

[11] = target: T11, selected panels of kinases in HeLa and PC3 cell lysates (Homo sapiens, UniProt Q15375); details: 10 uM; proteome PC3; peptide […]kIPVR; labeling site Activation Loop
T11 construct: endogenous in cells; host or cells: HeLa and PC3 cell lysates

[12] = target: T12, selected panels of kinases in HeLa and PC3 cell lysates (Homo sapiens, UniProt Q9NRH2); details: 10 uM; SNRK; peptide DLkPENVVFFEK; proteome PC3; labeling site Lys2
T12 construct: endogenous in cells; host or cells: HeLa and PC3 cell lysates

[13] = target: T13, selected panels of kinases in HeLa and PC3 cell lysates (Homo sapiens, UniProt P24941); details: 10 uM, peptide DLk[…], labeling site Lys2
T13 construct: endogenous in cells; host or cells: HeLa and PC3 cell lysates

[14] = target: T14, selected panels of kinases in HeLa and PC3 cell lysates (Homo sapiens, UniProt P49840); details: 10 uM; proteome HEL; peptide DIk[…]; labeling site Lys2
T14 construct: endogenous in cells; host or cells: HeLa and PC3 cell lysates

[15] = target: T15, selected panels of kinases in HeLa and PC3 cell lysates (Homo sapiens, UniProt P19525); details: 10 uM, PKR, peptide DLk[…], labeling site Lys2
T15 construct: endogenous in cells; host or cells: HeLa and PC3 cell lysates
T15 sequence (P19525 whole entry): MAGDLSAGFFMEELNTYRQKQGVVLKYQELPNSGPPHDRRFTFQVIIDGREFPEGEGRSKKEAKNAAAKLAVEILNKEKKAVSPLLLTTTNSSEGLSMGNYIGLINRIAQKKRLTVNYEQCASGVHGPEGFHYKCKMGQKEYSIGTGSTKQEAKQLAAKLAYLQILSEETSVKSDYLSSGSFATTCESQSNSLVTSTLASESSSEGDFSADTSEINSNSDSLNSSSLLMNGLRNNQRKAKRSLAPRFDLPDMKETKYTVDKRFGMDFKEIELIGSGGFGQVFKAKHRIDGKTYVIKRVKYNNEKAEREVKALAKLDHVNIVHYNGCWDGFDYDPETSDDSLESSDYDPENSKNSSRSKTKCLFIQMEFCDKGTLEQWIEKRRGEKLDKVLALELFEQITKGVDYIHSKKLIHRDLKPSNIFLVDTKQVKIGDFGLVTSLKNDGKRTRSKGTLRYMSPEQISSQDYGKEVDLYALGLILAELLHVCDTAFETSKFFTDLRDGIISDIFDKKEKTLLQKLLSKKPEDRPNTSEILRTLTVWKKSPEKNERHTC

[16] = target: T16, selected panels of kinases in HeLa and PC3 cell lysates (Homo sapiens, UniProt P54760); details: 10 uM; proteome PC3; peptide […]kIPIR; labeling site Activation Loop
T16 construct: endogenous in cells; host or cells: HeLa and PC3 cell lysates

[17] = target: T17, selected panels of kinases in HeLa and PC3 cell lysates (Homo sapiens, UniProt Q8IVH8); details: 10 uM; proteome PC3; peptide […]kVIK; labeling site Lys1
T17 construct: endogenous in cells; host or cells: HeLa and PC3 cell lysates

[18] = target: T18, selected panels of kinases in HeLa and PC3 cell lysates (Homo sapiens, UniProt O96017); details: 10 uM
T18 construct: endogenous in cells; host or cells: HeLa and PC3 cell lysates
T18 sequence (O96017 whole entry): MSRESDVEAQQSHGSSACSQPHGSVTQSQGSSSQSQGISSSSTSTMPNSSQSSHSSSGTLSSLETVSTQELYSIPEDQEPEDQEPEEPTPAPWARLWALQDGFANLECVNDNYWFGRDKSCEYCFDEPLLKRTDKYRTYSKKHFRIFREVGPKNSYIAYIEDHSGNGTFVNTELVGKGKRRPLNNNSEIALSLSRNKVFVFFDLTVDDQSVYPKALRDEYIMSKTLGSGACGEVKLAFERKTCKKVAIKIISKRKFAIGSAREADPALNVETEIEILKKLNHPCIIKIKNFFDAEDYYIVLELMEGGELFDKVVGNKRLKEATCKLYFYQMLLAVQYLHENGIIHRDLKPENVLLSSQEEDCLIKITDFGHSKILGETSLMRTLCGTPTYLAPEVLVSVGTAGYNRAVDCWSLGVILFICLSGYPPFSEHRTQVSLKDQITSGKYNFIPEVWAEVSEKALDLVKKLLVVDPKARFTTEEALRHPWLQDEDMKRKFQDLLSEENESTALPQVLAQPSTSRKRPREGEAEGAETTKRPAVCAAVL

[19] = target: T19, selected panels of kinases in HeLa and PC3 cell lysates (Homo sapiens, UniProt Q12851); details: 10 uM; proteome HEL; peptide […]kIVK; labeling site Lys1
T19 construct: endogenous in cells; host or cells: HeLa and PC3 cell lysates

[20] = target: T20, selected panels of kinases in HeLa and PC3 cell lysates (Homo sapiens, UniProt Q13464); details: 10 uM; ROCK1; peptide kLQLELNQER; proteome PC3; labeling site Other
T20 construct: endogenous in cells; host or cells: HeLa and PC3 cell lysates

[21] = target: T21, selected panels of kinases in HeLa and PC3 cell lysates (Homo sapiens, UniProt Q9NRM7); details: 10 uM; proteome HEL; peptide VDTHALYAMkTLR; labeling site Lys1
T21 construct: endogenous in cells; host or cells: HeLa and PC3 cell lysates

[22] = target: T22, selected panels of kinases in HeLa and PC3 cell lysates (Homo sapiens, UniProt Q9Y572); details: 10 uM; RIPK3; peptide DLk[…]; proteome HEL; labeling site Lys2
T22 construct: endogenous in cells; host or cells: HeLa and PC3 cell lysates

[23] = target: T23, selected panels of kinases in HeLa and PC3 cell lysates (Homo sapiens, UniProt Q9Y2H1); details: 10 uM; proteome PC3; peptide DTGHIYAMkILR; labeling site Lys1
T23 construct: endogenous in cells; host or cells: HeLa and PC3 cell lysates

[24] = target: T24, selected panels of kinases in HeLa and PC3 cell lysates (Homo sapiens, UniProt P23743); details: 10 uM; proteome HEL; peptide […]kSGGK; labeling site ATP
T24 construct: endogenous in cells; host or cells: HeLa and PC3 cell lysates
T24 sequence (P23743 whole entry): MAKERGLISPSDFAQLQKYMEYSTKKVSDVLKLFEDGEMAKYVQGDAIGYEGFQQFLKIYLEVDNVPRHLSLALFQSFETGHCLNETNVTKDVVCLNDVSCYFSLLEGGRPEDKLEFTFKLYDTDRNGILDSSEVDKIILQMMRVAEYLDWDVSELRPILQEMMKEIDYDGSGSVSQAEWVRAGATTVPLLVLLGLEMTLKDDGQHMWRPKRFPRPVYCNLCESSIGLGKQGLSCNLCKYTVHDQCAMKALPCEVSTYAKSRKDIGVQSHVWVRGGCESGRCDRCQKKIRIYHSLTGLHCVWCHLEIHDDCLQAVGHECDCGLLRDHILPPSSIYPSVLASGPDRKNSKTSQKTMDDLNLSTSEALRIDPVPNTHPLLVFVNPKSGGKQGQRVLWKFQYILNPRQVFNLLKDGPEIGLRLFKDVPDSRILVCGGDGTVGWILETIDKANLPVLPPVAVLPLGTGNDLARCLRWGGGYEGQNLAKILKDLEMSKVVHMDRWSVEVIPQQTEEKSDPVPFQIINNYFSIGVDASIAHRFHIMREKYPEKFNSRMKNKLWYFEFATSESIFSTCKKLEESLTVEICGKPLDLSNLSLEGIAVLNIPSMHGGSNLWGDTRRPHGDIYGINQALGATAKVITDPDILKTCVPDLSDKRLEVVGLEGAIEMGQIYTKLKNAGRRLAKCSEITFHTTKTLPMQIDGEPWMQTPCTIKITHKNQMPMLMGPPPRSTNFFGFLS

[25] = proteome HEL, peptide DLk[…], labeling site Lys2
[26] = proteome PC3, peptide DLk[…], labeling site Lys2
[27] = proteome PC3, peptide VAIkIISK, labeling site Lys1

SMILES	% Inhibiton, CaMK1d [1] [%]	% Inhibition PCTAIRE2 [2] [%]	% Inhibiton, ATR ([3]; proteome HEL) [%]	% Inhibiton, ATR ([3]; proteome PC3) [%]	% Inhibition Wnk4 [4] [%]	% Inhibiton, CDK10 [5] [%]	% Inhibiton, IKKa [6] [%]	% Inhibition p70S6K [7] [%]	% Inhibiton, p70S6K [7] [%]	% Inhibition PHKg2 [8] [%]	% Inhibiton, EphB2 [9] [%]	% Inhibition PRP4 [10] [%]	% Inhibiton, EphA7 [11] [%]	% Inhibition SNRK [12] [%]	% Inhibiton, CDK2 ([13]; proteome HEL) [%]	% Inhibiton, CDK2 ([13]; proteome PC3) [%]	% Inhibiton, GSK3A [14] [%]	% Inhibition PKR ([15]; proteome HEL) [%]	% Inhibition PKR ([15]; proteome PC3) [%]	% Inhibiton, EphB4 [16] [%]	further results
COc1cc(C(=O)N2CCC(N3CCN(C)CC3)CC2)ccc1Nc1ncc2c(n1)N(C1CCCC1)c1ccccc1C(=O)N2C [Compound 25, 11-cyclopentyl-2-((2-methoxy-4-(4-(4-methylpiperazin-1-yl)piperidine-1-carbonyl)phenyl)amino)-5-methyl-5H-benzo[e]pyrimido[5,4-b][1,4]diazepin-6(11H)-one]	5.8	4.8	8.5	21.0	-16.3	-11.0	5.3	3.9	16.9	8.1	-3.8	-11.9	-3.8	-15.7	9.4	5.0	4.1	6.1	-3.4	-13.0	% Inhibiton, KHS2 [17]: -4.9%; % Inhibiton, CHK2 [18, 25]: 15.6%; % Inhibiton, CHK2 [18, 26]: 0.0283%; % Inhibiton, CHK2 [18, 27]: 11.3%; % Inhibiton, GCK [19]: -2.3%; % Inhibition ROCK1 [20]: -4.2%; % Inhibiton, LATS2 [21]: -4.2%; % Inhibition RIPK3 [22]: -1.3%; % Inhibiton, NDR2 [23]: -0.235%; % Inhibiton, DGKA [24]: 8.1%
CCOc1cc(C(=O)N2CCC(N3CCN(C)CC3)CC2)ccc1Nc1ncc2c(n1)N(C1CCCC1)c1ccccc1C(=O)N2C [Compound 26]	19.9	1.4	-9.8	-4.3	-2.1	10.4	-5.9	10	-24.4	-3.8	-3.1	5.5	8.5	-6.9	7	-6.7	10.2	-0.3	-3.3	17	% Inhibiton, KHS2 [17]: -3.3%; % Inhibiton, CHK2 [18, 25]: -18.8%; % Inhibiton, CHK2 [18, 26]: 14.1%; % Inhibiton, CHK2 [18, 27]: 4.6%; % Inhibiton, GCK [19]: 6.8%; % Inhibition ROCK1 [20]: -8.1%; % Inhibiton, LATS2 [21]: 3.2%; % Inhibition RIPK3 [22]: -2.4%; % Inhibiton, NDR2 [23]: 8.2%; % Inhibiton, DGKA [24]: 5.7%
